For assay [1], the target named is T1, Monoamineoxidase B type human-derived enzyme (Homo sapiens, UniProt P27338).
T1 sequence (P27338 1-520): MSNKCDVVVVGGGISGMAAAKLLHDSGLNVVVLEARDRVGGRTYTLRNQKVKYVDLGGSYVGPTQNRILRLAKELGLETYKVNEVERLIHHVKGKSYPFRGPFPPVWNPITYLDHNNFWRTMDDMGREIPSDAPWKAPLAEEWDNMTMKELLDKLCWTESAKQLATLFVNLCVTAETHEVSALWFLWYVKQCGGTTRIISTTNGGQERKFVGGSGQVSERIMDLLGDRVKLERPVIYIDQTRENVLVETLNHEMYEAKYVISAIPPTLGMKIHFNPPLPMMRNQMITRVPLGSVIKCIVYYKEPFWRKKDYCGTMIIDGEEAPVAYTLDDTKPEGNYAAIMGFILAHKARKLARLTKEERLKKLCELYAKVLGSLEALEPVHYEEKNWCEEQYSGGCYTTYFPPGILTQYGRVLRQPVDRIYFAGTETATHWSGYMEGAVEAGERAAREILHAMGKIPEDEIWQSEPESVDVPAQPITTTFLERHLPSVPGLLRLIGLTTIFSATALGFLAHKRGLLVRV
As to the kind of experiment: Inhibitory effects on the activity of MAO-B (Amplex Red fluorescence, benzylamine substrate). The assay is classed as biochemical. The conditions noted are these: for inhibition at 0.01 µM: read-out: Inhibitory effects (%) on the activity of MAO-B. In outline: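 Human MAO-B, diluted 1:200 in 0.05 M sodium phosphate pH 7.4, was pre-incubated with compound for 30 min. It was then mixed 1:1 with working buffer holding 400 μM Amplex Red, 2 U/ml HRP and 2 mM benzylamine (working-buffer levels). Fluorescence (Ex 563/Em 587 nm) was read over 30 min.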

For assay [2], the system named is dopamine (DA) in the striatum of a MPTP-treated mouse. Description: Combined administration with Levodopa group: dopamine in the striatum of MPTP-treated mouse (HPLC). The assay is classed as in vivo. Particulars: compound 1 mg/kg PO co-administered with Levodopa group (Levodopa 50 mg/kg + Benzerazide 25 mg/kg IP); for Concentration of dopamine compared to a control group %, 1 hr: 1 hr after Levodopa; for Concentration of dopamine compared to a control group %, 3 hr: 3 hr after Levodopa. On the procedure:
MPTP (20 mg/kg, free base; Sigma, St. louis, Mo.) was administered to an 8 week old (20-25 g) male C57BL/6 test mouse intraperitoneally at the interval of 2 hours to construct a model.
In order to observe the effects of combined administration of a compound of the present invention and Levodopa, the compound of the present invention was dissolved in a solution containing 0.02 ml of dimethylsulfoxide (DMSO), 0.02 ml of Cremophor, 0.08 ml of polyethyleneglycol (PEG), and 0.08 ml of physiological saline. The resulting solution was orally administered at doses of 1 mg/kg one week after the MPTP treatment, and a Levodopa group containing Levodopa at 50 mg/kg and Benzerazide at 25 mg/kg was intraperitoneally administered 1 hour later.
A single administration of the Levodopa group in the following Table 4 indicates values resulting from a MPTP (toxin) treatment followed by an administration of the Levodopa group compared to the treatment results of a Levodopa single administration group of Levodopa and Benzerazide.
At 1 hour and 3 hours after administration of Levodopa, the animals were sacrificed by cervical vertebra dislocation and the brain tissues were immediately isolated from the animals. 0.5 me of iced solution for HPLC analysis (0.1 M perchloric acid and 0.1 mM EDTA) was added to a striatum obtained from the isolated brain tissues, and an ultrasonic grinder was used to prepare a tissue homogenate. The tissue homogenate was centrifuged at 12,000 rpm for 15 minutes, and its supernatant was filtered through nitrocellulose membrane filter (0.2 um, Millipore). For HPLC analysis, uBondapak™ C18 column (4.6×150 mm, particle size 10 μm: Shisheido, Japan) was used, the flow rate of the mobile phase (0.07 M monobasic sodium phosphate, 1 mM sodium octasulfonic acid, 0.1 uM EDTA, 5% acetonitrile, pH 3.2) was maintained at 0.5 me/min, and the electrode potential of the electrochemical detector (CouloChem III, ESA, Japan) was set at 350 mV.

For the next assay, the system named is MPTP-induced mouse model. As to the kind of experiment: Tail suspension test in MPTP-induced mouse model of Parkinson's disease. Particulars: administration concentration 10 (10 mg/kg), oral, 7 days after MPTP, % of control group (Sham); for response vs control in vivo at 10 mg/kg: Mus musculus, 168 h, read-out: Mobility (%). The assay is classed as in vivo. How it is done: A. MPTP (1-methyl-4-phenyl-1,2,3,6-tetrahydropyridine) and drug treatment MPTP (20 mg/kg, free base; Sigma, St. louis, Mo.) was administered to an 8 week old (20-25 g) male C57BL/6 test mouse intraperitoneally three times a day at the interval of 2 hours to construct a model (Breidert et al., 2002; Lichuan Yang, Shuei Sugama, Jason W. Chirichigno, Jason Gregorio, Stefan Lorenzl, Dong H. Shin, Susan E. Browne, Yoshinori Shimizu, Tong H. Joh, M. Flint Beal, l and David S. Alber. (2003) Minocycline Enhances MPTP Toxicity to Dopaminergic Neurons. J Neurosci Res. 74:278-285). In order to observe the protective effects of the compound as a candidate drug, the compound was dissolved in a solution containing 10% dimethylsulfoxide (DMSO), 10% Cremophor, and 40% polyethyleneglycol (PEG), […] treatment. Rasagiline as a control drug was also dissolved in the same solution, and the resulting solution was administered at the same doses in the same manner as above. A control group (Sham) in which MPTP was not administered was constructed by intraperitoneally administering saline solution to the group instead of MPTP in the same manner as above and orally administering the same solution 1 hour before and after PBS treatment.
A tail suspension test was performed in order to measure the induction degree of behavioral dysfunctions in accordance with administration of MPTP and a drug. At 7 days after administration of the drug, a round stainless steel rod (width: 1 cm) was affixed to a cage (width: 16 cm, height: 40 cm) 35 cm above from the surface shielded by black wooden structures in the left and right sides to perform experiments. The time for which the animal moved for a total period of 6 minutes was measured in seconds to evaluate the drug action.
Mobility refers to an expression of the measurement of the time for which the animal moved with its tail hung high as a percentage compared to the measurement of a control group.

Read-outs that look alike come from different tables or passages of the source.

On to `NC(=O)OCc1nc(-c2ccc(OCc3ccccc3)cc2)no1` [Example 2, carbamic acid 3-(4-benzyloxy-phenyl)-[1,2,4]oxadiazol-5-ylmethyl ester], for which the inhibition at 0.01 µM in assay [1] was 95%. In addition, in assay [2], the “Concentration of dopamine compared to a control group %, 1 hr” value (“Concentration … to a control group %, 1 hr” for short) was determined as 106.12% and the “Concentration of dopamine compared to a control group %, 3 hr” value (“Concentration … to a control group %, 3 hr” for short) stood at 43.6%.
As to `NC(=O)OCc1cc(-c2ccc(NCc3ccoc3)cc2)no1` [Example 111, carbamic acid 3-{4-[(furan-3-ylmethyl)-amino]-phenyl}-isoxazol-5-ylmethyl ester], the inhibition at 0.01 µM in assay [1] was found to be 69%. Moreover, the response vs control in vivo at 10 mg/kg in the assay on MPTP-induced mouse model was 78.8%.
With `NC(=O)NCc1cc(-c2ccc(OCc3ccccc3)cc2)no1` [Example 152, [3-(4-benzyloxy-phenyl)-isoxazol-5-ylmethyl]-urea], the inhibition at 0.01 µM in assay [1] (treatment concentration 10 nM) is 96.1%. Further, in assay [2], the “Concentration … to a control group %, 1 hr” value was determined as 87.0% and the “Concentration … to a control group %, 3 hr” value is 77.0%.
In the case of `NC(=O)OCc1cc(-c2ccc(OCc3cccnc3)cc2)no1` [Example 66, Carbamic acid 3-[4-(pyridin-3-ylmethoxy)-phenyl]-isoxazol-5-ylmethyl ester], the inhibition at 0.01 µM in assay [1] stood at 87.3%. The response vs control in vivo at 10 mg/kg in the assay with MPTP-induced mouse model came to 74.9%.
Consider `Cc1cccc(CNc2ccc(-c3cc(COC(N)=O)on3)cc2)c1` [Example 101, Carbamic acid 3-[4-(3-methyl-benzylamino)-phenyl]-isoxazol-5-ylmethyl ester], for which, in assay [1] (treatment concentration 10 nM), the inhibition at 0.01 µM came to 80.5%. The response vs control in vivo at 10 mg/kg with MPTP-induced mouse model was determined as 78.3%.
For `O=C(OCc1cc(-c2ccc(OCc3ccccc3)cc2)no1)n1ccnc1` [Example 120, Imidazole-1-carboxylic acid 3-(4-benzyloxy-phenyl)-isoxazol-5-ylmethyl ester], the inhibition at 0.01 µM in assay [1] (treatment concentration 10 nM) was determined as 87.8%. Further, in assay [2], the “Concentration … to a control group %, 1 hr” value was determined as 148.5% and the “Concentration … to a control group %, 3 hr” value is reported as 53.9%.
As to “[carbamic acid 3-(4-methylsulfanylmethoxy-phenyl)-isoxazol-5-ylmethyl ethyl ester [Example 48]”, the “Inhibitory effects (%) on the activity of MAO-B” value in assay [1] (treatment concentration 10 nM) was found to be 48.4%. Besides, in the assay on MPTP-induced mouse model, the “Mobility (%)” value stood at 74.6%.
Regarding `NC(=O)OCc1cc(-c2ccc(OCc3ccccc3F)cc2)no1` [Example 11, carbamic acid 3-[4-(2-fluoro-benzyloxy)-phenyl]-isoxazol-5-ylmethyl ester], the inhibition at 0.01 µM in assay [1] (treatment concentration 10 nM) turned out to be 101%. Besides, in the assay with MPTP-induced mouse model, the response vs control in vivo at 10 mg/kg was 82.2%.
Turning to `CCCCOc1ccc(-c2cc(COC(N)=O)on2)cc1` [Example 43, carbamic acid 3-(4-butoxy-phenyl)-isoxazol-5-ylmethyl ester], the inhibition at 0.01 µM in assay [1] was found to be 96.8%. Also, the response vs control in vivo at 10 mg/kg in the assay with MPTP-induced mouse model was 71%.
`COc1ccccc1CNc1ccc(-c2cc(COC(N)=O)on2)cc1` [Example 104, Carbamic acid 3-[4-(2-methoxy-benzylamino)-phenyl]-isoxazol-5-ylmethyl ester]: the inhibition at 0.01 µM in assay [1] (treatment concentration 10 nM) stood at 89.1%. Besides, in the assay on MPTP-induced mouse model, the response vs control in vivo at 10 mg/kg was 82%.
As for `NC(=O)OCc1cc(-c2ccc(NCc3cccs3)cc2)no1` [Example 110, carbamic acid 3-{4-[(thiophen-2-ylmethyl)-amino]-phenyl}-isoxazol-5-ylmethyl ester], the inhibition at 0.01 µM in assay [1] is 80.8%. In addition, the response vs control in vivo at 10 mg/kg in the assay on MPTP-induced mouse model came to 80.7%.
As to `NC(=O)CNCc1cc(-c2ccc(OCc3ccccc3)cc2)no1` [Example 162, 2-{[3-(4-benzyloxy-phenyl)-isoxazol-5-ylmethyl]-amino}-acetamide], the inhibition at 0.01 µM in assay [1] (treatment concentration 10 nM) was determined as 66.1%. Moreover, in assay [2], the “Concentration … to a control group %, 1 hr” value is on record as 148.3% and the “Concentration … to a control group %, 3 hr” value is listed as 100.1%.
The like results for `O=C(OCc1cc(-c2ccc(OCc3ccccc3)cc2)no1)N1CCOCC1` [Example 127, morpholine-4-carboxylic acid 3-(4-benzyloxy-phenyl)-isoxazol-5-ylmethyl ester] were, in that order, 45.3%, 140.7% and 60.4%.

These data come from US8828992B2, “Substituted azole derivatives, pharmaceutical composition containing the derivatives, and method for treating Parkinson's disease using the same” (priority 2009, dated 2014).
